This is an account of results in US6117975A, “Melanocortin receptor polypeptides MC-3, MC-4, and MC-5” (The Regents of the University of Michigan, priority 1996, dated 2000).

Experiment [1] concerns endogenous vasopressin receptors. As to the kind of experiment: intracellular Ca++ concentration in Hepa cells, endogenous vasopressin receptors. It counts as cell-based, rat. On the procedure:
Measurement of Intracellular Ca++ Concentration ([Ca++]i). For these experiments, Hepa cells were detached by incubation in Ca^++ -free EBSS with 2.0 mM EDTA, loaded with 1 μM fura-2/AM (Molecular Probes, Eugene, Oreg.) for 20 min at 37° C. in EBSS containing 0.1% BSA and 25 mM HEPES, washed by centrifugation at 50 X g, and resuspended and maintained in EBSS buffer at room temperature until the time of experimentation. [Ca^++ ]i measurements of cells suspended in a quartz cuvette were obtained using a dual-wavelength modular fluorometer (Spex-Fluorolog 2, Spex Industries, Edison, N.J.) according to previously described methods. DelValle, J. et al., Am. J. Physiol. 262:G420-426 (1992).

Experiment [2] relates to chimeric receptor cH2R/MC3R-3i. The settings on record: chimeric cH2R/MC3R-3i, Hepa cells. From the text:
(§1) Chimeric Receptor. […] The chimeric receptor (cH2R/MC3R-3i) was constructed by cassette mutation at the junction of the fifth and sixth transmembrane domains of cH2R. Six PCR primers were used to generate three DNA fragments which were subsequently ligated together. The three PCR-generated fragments consisted of 1) the 5' coding region of the cH2R receptor beginning just prior to the ATG codon and ending with the 3' end of the fifth transmembrane domain; 2) the portion of the MC3 receptor gene encoding its third intracytoplasmic loop; and 3) the 3' coding region of the cH2R beginning with that segment encoding the 5' end of the sixth transmembrane domain and ending slightly past the termination codon. The DNA fragments were cut with appropriate restriction enzymes at pre-engineered restriction sites designed so that the three fragments could be assembled together in only the correct alignment. Restriction sites were also designed to facilitate subcloning the chimeric receptor DNA into CMVneo and the sequencing vector M13. The nucleotide sequence of the CMVneo cH2R/MC3R-3i construct was confirmed prior to expression in Hepa cells.
(§2) cAMP Assays. A cAMP assay kit purchased from Amersham (TRK 432, Arlington Heights, Ill.) was employed. Transfected cells were grown to confluence in 12-well (2.4×1.7 cm) tissue culture plates. […]

The target in experiment [3] is T1, wild-type H2-histamine receptor (cH2R) (Canis lupus familiaris, UniProt P17124). The settings on record: Hepa cells.
Source text: as §1, §2

Experiment [4] addresses T1, wild-type H2-histamine receptor (cH2R). The settings on record: Hepa cells.
Source text: as §1
(§3) Inositol Phosphate (IP) Assays.
The source holds these as a separate data set.

Experiment [5] relates to chimeric receptor cH2R/MC3R-3i. Description: [3H] IP production in Hepa cells transfected with chimeric cH2R/hMC3R-3i. Type of experiment: cell-based. Conditions: chimeric cH2R/MC3R-3i.
Source text: as §1, §3

Experiment [6] has as its target T2, MC3 receptor (Homo sapiens, UniProt P41968). As to the kind of experiment: [3H] inositol phosphate (IP) production in Hepa cells transfected with the MC3 receptor.
Source text: Receptor Gene Expression. The coding region of the MC3 receptor gene was subcloned into the eukaryotic expression vector CMVneo using a polymerase chain reaction (PCR) strategy as previously described. […] The insert was subsequently checked by dideoxynucleotide sequencing to insure that no errors were induced by the PCR. A rat hepatoma cell line (Hepa) which lacks endogenous melanocortin receptors was transfected with the CMVneo/MC3 receptor construct using the calcium phosphate co-precipitation method. […] Cells were selected for resistance to the neomycin analogue Geneticin (Life Sciences) and clones were subsequently chosen for high levels of receptor mRNA expression by Northern blot analysis.
Inositol Phosphate (IP) Assays. Measurement of inositol phospholipid turnover in Hepa cells was performed according to a modification of previously published methods as follows. […] Cells grown to semi-confluence in multiwell plates were prelabeled with [2-^3 H] myo-inositol in DMEM for 24 hr, incubated in EBSS for 30 min, then incubated for another 15 min in EBSS with 10 mM LiCl. The final incubation was in media with experimental ligand added for up to three min after which ice cold 100% methanol was added and the cells were scraped and extracted with 2 ml chloroform, 10 μl HCl (13 N), and 200 μl of 100 mM EDTA in a 50 ml polypropylene tube. The mixture was then vortexed and centrifuged at 1,900 X g. The supernatant was removed and its pH was adjusted to 7.0 by adding 1 N NaOH. Waters Accel plus QMA SEP-PAK anion exchange cartridges (Waters Chromatography, Millipore Corporation, Milford, Mass.) were used to separate inositol phosphates under differing concentrations of formatelformic acid. The cartridges were pretreated by washing with 10 ml of a solution of 1 M ammonium formate in 0.1 M formic acid followed by 20 ml of distilled water. The samples were applied with a flow rate of approximately 10 ml/min using a 10 ml syringe. IPs were then eluted using 10 mM increments of ammonium formate in a stepwise fashion. Inositol monophosphate was eluted with 10 mM formic acid/100 mM ammonium formate/5 mM disodium tetraborate, inositol bisphosphate was eluted with 20 mM formic acid/200 mM ammonium formate/5 mM disodium tetraborate, and IP3 was eluted with 30 mM formic acid/300 mM ammonium formate/5 mM disodium tetraborate. […] Eluted radioactivity from the pooled fractions (total inositol phosphates) were measured by liquid-scintillation spectrometry (Beckman model LS7800 instrument).
In experiment [7] the target is T2, MC3 receptor. As to the kind of experiment: intracellular cAMP content in Hepa cells transfected with the MC3 receptor. Type of experiment: cell-based. The arrangement: these were utilized to obtain full-length genomic clones by screening a genomic library; expressed in transfected cells; CMVneo vector.
Description: Receptor Expression. […] The sequences were subsequently checked by nucleotide sequencing to insure that no sequence errors were induced by PCR. […] A rat hepatoma cell line (Hepa) which lacks endogenous melanocortin receptors was also transfected with the CMVneo/MC3R and CMVneo/MC4R constructs.
cAMP Assays. For these assays a cAMP assay kit (TRK 432, Amersham Corp.) was employed. Cells transfected with the receptors were grown to confluence in 12-well (2.4×1.7 cm) tissue culture plates. The cells were maintained in Dulbecco's modified Eagle's medium (GIBCO) containing 4.5 g/100 ml glucose, 10% fetal calf serum, 100 units/ml penicillin and streptomycin, 1 mM sodium pyruvate, and 1 mg/ml Geneticin. For assays, this medium was removed and cells were washed twice with Earle's balanced salt solution containing 10 mM Hepes (pH 7.4), 1 mM glutamine, 26.5 mM sodium bicarbonate, and 100 mg/ml bovine serum albumin. An aliquot (0.5 ml) of Earle's balanced salt solution was placed into each well along with 5 μl of 2×10^-2 M isobutylmethylxanthine. Varying concentrations of agonist were added, and the cells were incubated to 30 min at 37° C. Ice-cold 30% trichloracetic acid (500 μl/well) was added to stop the reaction and precipitate cellular protein. The cells were scraped and transferred to 16×150-mm glass tubes, then placed on ice for 30 min. The precipitate was then centrifuged for 10 min at 1,900×g, and the supernatant was ether extracted, lyophilized, and resuspended in 50 mM Tris, 2 mM EDTA (pH 7.5). cAMP content was then measured by a competitive binding assay according to the assay instructions.
Receptor Gene Expression. The coding region of the MC3 receptor gene was subcloned into the eukaryotic expression vector CMVneo using a polymerase chain reaction (PCR) strategy as previously described. […] The insert was subsequently checked by dideoxynucleotide sequencing to insure that no errors were induced by the PCR. […]
Experiment [8] deals with T3, MC1 receptor (Homo sapiens, UniProt Q01726, R163Q/S90T).
T3 construct: expressed in transfected cells
T3 sequence (Q01726 1-317 S90T/R163Q): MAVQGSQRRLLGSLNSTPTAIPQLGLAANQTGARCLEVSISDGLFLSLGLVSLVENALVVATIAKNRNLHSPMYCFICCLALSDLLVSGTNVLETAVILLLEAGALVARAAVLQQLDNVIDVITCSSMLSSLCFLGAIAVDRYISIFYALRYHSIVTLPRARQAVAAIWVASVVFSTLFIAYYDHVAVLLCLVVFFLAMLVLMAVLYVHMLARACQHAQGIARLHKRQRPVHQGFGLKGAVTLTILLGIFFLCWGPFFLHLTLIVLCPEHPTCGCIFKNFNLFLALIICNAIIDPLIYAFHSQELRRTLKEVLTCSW
Description: cAMP generation in L-cells transfected with the MC1 receptor. Type of experiment: cell-based. From the text: (§4) Receptor Expression. […] The sequences were subsequently checked by nucleotide sequencing to insure that no sequence errors were induced by PCR. L-cells (a mouse fibroblast-like cell line) were transfected using a calcium phosphate co-precipitation method as described in Chen, C. A. et al. Bio/Techniques 6:632-638 (1988). Permanently transfected L-cells were selected by resistance to the neomysin analogue G418, and receptor mRNA expression was checked by Northern blot analysis. […] COS-1 cells which were transiently transfected with the CMVneo/MC4R gene construct by lipofection as described in Feigner, P. L. et al., PNAS (USA) 84:7413-7417 using the Lipofectin Reagent (Life Technologies Inc.) were split into 12-well plates after 24 hr and assayed 36 hr post-transfection.
(§5) cAMP Assays. For these assays a cAMP assay kit (TRK 432, Amersham Corp.) was employed. […] The cells were maintained in Dulbecco's modified Eagle's medium (GIBCO) containing 4.5 g/100 ml glucose, 10% fetal calf serum, 100 units/ml penicillin and streptomycin, 1 mM sodium pyruvate, and 1 mg/ml Geneticin. […] An aliquot (0.5 ml) of Earle's balanced salt solution was placed into each well along with 5 μl of 2×10^-2 M isobutylmethylxanthine. Varying concentrations of agonist were added, and the cells were incubated to 30 min at 37° C. Ice-cold 30% trichloracetic acid (500 μl/well) was added to stop the reaction and precipitate cellular protein. The cells were scraped and transferred to 16×150-mm glass tubes, then placed on ice for 30 min. The precipitate was then centrifuged for 10 min at 1,900×g, and the supernatant was ether extracted, lyophilized, and resuspended in 50 mM Tris, 2 mM EDTA (pH 7.5). cAMP content was then measured by a competitive binding assay according to the assay instructions.

Experiment [9] addresses T2, MC3 receptor. Description: cAMP generation in L-cells transfected with the MC3 receptor. Type of experiment: cell-based. Details: these were utilized to obtain full-length genomic clones by screening a genomic library; expressed in transfected cells; CMVneo vector.
Source text: as §4, §5

For experiment [10], the target named is T4, MC4 receptor (Homo sapiens, UniProt P32245).
T4 construct: expressed in transfected cells; host or cells: COS-1 (transient, lipofection); Hepa rat hepatoma; CMVneo vector
Description: cAMP generation in L-cells transfected with the MC4 receptor gene. It counts as cell-based.
Source text: as §4, §5

Experiment [11] addresses T5, MC1 receptor (Homo sapiens, UniProt Q01726).
T5 construct: host or cells: Cos-7 cells transfected with α-MSH receptor cDNA
The settings on record: Chhajlani et al. 1992; cited from earlier work.

Experiment [12] has as its system MC1 receptor. The settings on record: Mountjoy et al. 1992; cited from earlier work.
In experiment [13] the target is T4, MC4 receptor. As to the kind of experiment: cAMP generation in COS-1 cells transiently transfected with the MC4 receptor gene. Type of experiment: cell-based.
Source text: as §4
cAMP Assays. For these assays a cAMP assay kit (TRK 432, Amersham Corp.) was employed. […] The cells were maintained in Dulbecco's modified Eagle's medium (GIBCO) containing 4.5 g/100 ml glucose, 10% fetal calf serum, 100 units/ml penicillin and streptomycin, 1 mM sodium pyruvate, and 1 mg/ml Geneticin. […] The precipitate was then centrifuged for 10 min at 1,900×g, and the supernatant was ether extracted, lyophilized, and resuspended in 50 mM Tris, 2 mM EDTA (pH 7.5). cAMP content was then measured by a competitive binding assay according to the assay instructions.

No end group written: not given here.

T2 sequence (P41968 whole entry): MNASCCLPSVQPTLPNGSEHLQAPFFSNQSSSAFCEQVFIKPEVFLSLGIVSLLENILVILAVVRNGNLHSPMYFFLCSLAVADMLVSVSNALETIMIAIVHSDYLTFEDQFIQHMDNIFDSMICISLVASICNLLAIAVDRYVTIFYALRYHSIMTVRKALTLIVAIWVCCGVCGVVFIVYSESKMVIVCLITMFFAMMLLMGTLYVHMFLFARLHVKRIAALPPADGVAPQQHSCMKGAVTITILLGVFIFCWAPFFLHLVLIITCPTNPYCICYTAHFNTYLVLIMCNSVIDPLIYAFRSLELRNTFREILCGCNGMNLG
T4 sequence (P32245 whole entry): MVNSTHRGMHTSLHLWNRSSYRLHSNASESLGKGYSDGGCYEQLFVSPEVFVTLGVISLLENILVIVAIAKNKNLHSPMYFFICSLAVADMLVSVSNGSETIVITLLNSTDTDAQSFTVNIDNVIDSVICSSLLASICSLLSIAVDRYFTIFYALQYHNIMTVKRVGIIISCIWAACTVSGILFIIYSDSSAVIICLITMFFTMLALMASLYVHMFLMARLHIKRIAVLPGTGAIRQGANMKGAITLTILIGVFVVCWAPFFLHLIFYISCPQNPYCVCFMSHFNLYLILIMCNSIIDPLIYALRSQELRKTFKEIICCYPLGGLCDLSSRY
T1 sequence (P17124 whole entry): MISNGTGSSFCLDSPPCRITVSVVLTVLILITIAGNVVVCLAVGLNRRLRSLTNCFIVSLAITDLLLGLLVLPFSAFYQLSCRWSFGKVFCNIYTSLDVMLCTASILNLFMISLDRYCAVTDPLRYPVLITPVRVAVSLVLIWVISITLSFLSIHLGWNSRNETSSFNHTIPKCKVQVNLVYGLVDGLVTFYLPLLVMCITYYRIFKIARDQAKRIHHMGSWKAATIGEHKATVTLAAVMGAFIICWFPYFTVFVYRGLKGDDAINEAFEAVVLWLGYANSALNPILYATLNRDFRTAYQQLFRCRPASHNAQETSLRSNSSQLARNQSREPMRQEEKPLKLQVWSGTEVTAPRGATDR
T5 sequence (Q01726 whole entry): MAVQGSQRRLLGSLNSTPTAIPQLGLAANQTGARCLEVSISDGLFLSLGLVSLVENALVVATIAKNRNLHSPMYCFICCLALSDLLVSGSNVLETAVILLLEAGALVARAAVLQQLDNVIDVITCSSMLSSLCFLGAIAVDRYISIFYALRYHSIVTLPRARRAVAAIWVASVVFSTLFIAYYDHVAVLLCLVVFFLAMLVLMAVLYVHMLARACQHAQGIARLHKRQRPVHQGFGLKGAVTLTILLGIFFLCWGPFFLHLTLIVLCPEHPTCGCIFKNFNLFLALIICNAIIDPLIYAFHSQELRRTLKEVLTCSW

Consider `NC(=O)CC[C@@H]1NC(=O)[C@H](Cc2ccccc2)NC(=O)[C@H](Cc2ccc(O)cc2)NC(=O)[C@@H](N)CSSC[C@@H](C(=O)N2CCC[C@H]2C(=O)N[C@@H](CCCN=C(N)N)C(=O)NCC(N)=O)NC(=O)[C@H](CC(N)=O)NC1=O` [vasopressin], for which the “effect on [Ca++]i (in words)” value in experiment [1] was “increase in [Ca^++ ]i upon stimulation of their endogenous vasopressin receptors”.
`NCCc1c[nH]cn1` [histamine]: the “cAMP dose-response (in words)” value in experiment [2] is “monophasic cAMP dose-response curve”; in experiment [3], “monophasic dose-dependent increases in both cAMP and [^3 H]-IP production”. Moreover, the “[3H]-IP production dose-response (in words)” value in experiment [4] is “monophasic dose-dependent increases in both cAMP and [^3 H]-IP production”; in experiment [5] (Hepa cells), “biphasic dose-response curve for [^3 H]-IP production”.
With `O=S(=O)(NCCNCC=Cc1ccc(Br)cc1)c1cccc2cnccc12` [H-89, N-[2-(p-bromocinnamyl-amino)ethyl]-5-isoquinolinesulfonamide], the “effect on α-MSH stimulated [3H]-IP production (in words)” value at MC3 receptor [6] was “restoration of the higher levels of [^3 H]-IP products observed with 10^-11 M α-MSH”. Also, the “concentration of maximum effect on α-MSH stimulated [3H]-IP production” value at MC3 receptor [6] (pretreatment, 10^-8 M α-MSH, Hepa cells, MC3 receptor) was 1 µM. The “effect on inhibitory phase of histamine [3H]-IP dose response curve (in words)” value in [5] (pretreatment) is recorded as “abolished by pretreatment with H-89”.
For the compound “SYSMEHFRWGKPVGKKRRPVKVYPNGAEDESAEAFPLEF [ACTH, ACTH(1-39)]”, on MC3 receptor [6] (HepA, read-out: maximal stimulation of [3H]-IP production, % of basal unstimulated value), the Emax was found to be 155%. On MC3 receptor [6] (Hepa cells, MC3 receptor), the “inositol phospholipid turnover dose-response (in words)” value is on record as “At low doses (below 10^-11 M) there was a clear stimulatory effect, however, at higher doses, there was a dose dependent inhibitory effect”. The “cAMP production relative to control unstimulated levels at maximal doses” value at MC3 receptor [7] was “exceeded 15 times the control”. Moreover, the “cAMP response (in words)” value on MC3 receptor [7] is “stimulated cAMP production”; on MC1 receptor [8] it was “equal potency and efficacy”; at MC3 receptor [9], “equal potency and efficacy”; on MC4 receptor [10], “equal potency and efficacy”; at MC4 receptor [13], “marked increase in intracellular cAMP content”. Further, the “affinity in displacing 125I-labeled [Nle4,D-Phe7]α-MSH (in words)” value at MC1 receptor [11] is on record as “equal affinities”. The “cAMP production via the MC1 receptor (in words)” value in the experiment on MC1 receptor [12] was “less potent and less efficacious than α-MSH”.
